Measured values from patent publication US20200405697A1, “Antitumor Agent” (Taiho Pharmaceutical Co., Ltd, priority 2017, published 2020).

System: A549 (Human lung cancer cell line)
Assay: Effect of combination of sulfonamide compound and other antitumor agent (CellTiter-Glo, combination index): A549
[1] = Example Compound 1 281 nM + Fludarabine nucleoside 5920 nM, molar ratio 1:21.08
[2] = Example Compound 1 281 nM + Prexasertib 1.97 nM, molar ratio 1:0.007018
[3] = Example Compound 1 281 nM + SCH900776 908 nM, molar ratio 1:3.232
[4] = Example Compound 1 422 nM + AZD6738 1040 nM, molar ratio 1:2.455
[5] = Example Compound 1 422 nM + Cytarabine 108 nM, molar ratio 1:0.2566
[6] = Example Compound 1 422 nM + Fludarabine nucleoside 8900 nM, molar ratio 1:21.08
[7] = Example Compound 1 422 nM + Prexasertib 2.96 nM, molar ratio 1:0.007018
[8] = Example Compound 1 422 nM + SCH900776 1360 nM, molar ratio 1:3.232
[9] = Example Compound 1 633 nM + AZD6738 1550 nM, molar ratio 1:2.455
[10] = Example Compound 1 633 nM + Fludarabine nucleoside 13300 nM, molar ratio 1:21.08
[11] = Example Compound 1 633 nM + Guadecitabine 489 nM, molar ratio 1:0.7725
[12] = Example Compound 1 633 nM + Prexasertib 4.44 nM, molar ratio 1:0.007018
[13] = Example Compound 1 633 nM + SCH900776 2050 nM, molar ratio 1:3.232
[14] = Example Compound 1 949 nM + AZD6738 2330 nM, molar ratio 1:2.455
[15] = Example Compound 1 949 nM + Azacytidine 2740 nM, molar ratio 1:2.885
[16] = Example Compound 1 949 nM + Cytarabine 244 nM, molar ratio 1:0.2566
[17] = Example Compound 1 949 nM + Decitabine 2000 nM, molar ratio 1:2.108
[18] = Example Compound 1 949 nM + Fludarabine nucleoside 20000 nM, molar ratio 1:21.08
[19] = Example Compound 1 949 nM + Guadecitabine 733 nM, molar ratio 1:0.7725
[20] = Example Compound 1 949 nM + Prexasertib 6.66 nM, molar ratio 1:0.007018
[21] = Example Compound 1 949 nM + SCH900776 3070 nM, molar ratio 1:3.232
[22] = Example Compound 1 949 nM + Sunitinib 1870 nM, molar ratio 1:1.969
[23] = Example Compound 1 949 nM + Trifluridine 430 nM, molar ratio 1:0.4535
[24] = Example Compound 1 1420 nM + 5-Fluorouracil 2700 nM, molar ratio 1:1.900
[25] = Example Compound 1 1420 nM + AZD6738 3490 nM, molar ratio 1:2.455
[26] = Example Compound 1 1420 nM + Azacytidine 4100 nM, molar ratio 1:2.885
[27] = Example Compound 1 1420 nM + Cytarabine 364 nM, molar ratio 1:0.2566
[28] = Example Compound 1 1420 nM + Decitabine 2990 nM, molar ratio 1:2.108
[29] = Example Compound 1 1420 nM + Etoposide 3780 nM, molar ratio 1:2.663
[30] = Example Compound 1 1420 nM + Gemcitabine 8.37 nM, molar ratio 1:0.005895
[31] = Example Compound 1 1420 nM + Guadecitabine 1100 nM, molar ratio 1:0.7725
[32] = Example Compound 1 1420 nM + Lapatinib 5990 nM, molar ratio 1:4.216
[33] = Example Compound 1 1420 nM + Luminespib 13.5 nM, molar ratio 1:0.009473
[34] = Example Compound 1 1420 nM + Midostaurin 250 nM, molar ratio 1:0.1761
[35] = Example Compound 1 1420 nM + Olaparib 14800 nM, molar ratio 1:10.40
[36] = Example Compound 1 1420 nM + Oxaliplatin 1060 nM, molar ratio 1:0.7448
[37] = Example Compound 1 1420 nM + Sunitinib 2800 nM, molar ratio 1:1.969
[38] = Example Compound 1 1420 nM + Talazoparib 7980 nM, molar ratio 1:5.617
[39] = Example Compound 1 1420 nM + Trifluridine 644 nM, molar ratio 1:0.4535
[40] = Example Compound 1 2140 nM + Cabozantinib […], molar ratio 1:4.216
[41] = Example Compound 1 2140 nM + Carboplatin 79500 nM, molar ratio 1:37.17
[42] = Example Compound 1 2140 nM + Cisplatin 9620 nM, molar ratio 1:4.494
[43] = Example Compound 1 2140 nM + Trifluridine 970 nM, molar ratio 1:0.4535
[44] = Example Compound 1 3200 nM + Carboplatin 119000 nM, molar ratio 1:37.17
[45] = Example Compound 1 3200 nM + Cisplatin 14400 nM, molar ratio 1:4.494
[46] = Example Compound 1 4810 nM + Carboplatin 179000 nM, molar ratio 1:37.17

Procedure: Each cell line was seeded at 90 L/well to a 96-well culture plate (Thermo Fisher Scientific, Inc.) according to the above tables. The cell-seeded plate was cultured in an incubator set to 37° C. and 500 CO2. On the day following seeding, varying concentrations of the sulfonamide compound and the other antitumor agent were added in combination to the cells. […] The serial dilutions of each compound, or DW was added at 5μL/well to the plate such that each compound and DW, or the sulfonamide compound and the other antitumor agent were combined. […] The plate after the addition was cultured at 37° C. for 3 days under 5% CO2 conditions.
Three days later, CellTiter-Glo(R) 2.0 Reagent (Promega Corporation) was added at 100 μL/well, and the amount of luminescence was measured using a plate reader EnSpire(R) Multimode Plate Reader (PerkinElmer Co., Ltd.).
An average value from 3 wells was calculated as to each drug condition from the obtained data, and cell survival rate normalized against control wells supplemented with the vehicle (DW) was calculated. A Fa (fractional inhibition) value was calculated by subtracting the cell survival rate from 1.

Cc1ccc(F)c([C@@H](C)[C@H](NS(=O)(=O)c2ccc(Br)cc2C(N)=O)c2n[nH]c(=O)o2)c1C [Example 1, 5-bromo-2-(N-((1 S,2R)-2-(6-fluoro-2,3-dimethylphenyl)-1-(5-oxo-4,5-dihydro-1,3,4-oxadiazol-2-yl)propyl)sulfamoyl)benzamide]
CI value [1]: 0.550 | Fa value [1]: 0.2653 | CI value [2]: 0.349 | Fa value [2]: 0.3570 | CI value [3]: 0.196 | Fa value [3]: 0.6117 | CI value [4]: 0.449 | Fa value [4]: 0.5145 | CI value [5]: 0.770 | Fa value [5]: 0.4482 | CI value [6]: 0.388 | Fa value [6]: 0.6824 | CI value [7]: 0.226 | Fa value [7]: 0.7264 | CI value [8]: 0.195 | Fa value [8]: 0.7479 | CI value [9]: 0.350 | Fa value [9]: 0.7602 | CI value [10]: 0.367 | Fa value [10]: 0.8650 | CI value [11]: 0.471 | Fa value [11]: 0.4374 | CI value [12]: 0.193 | Fa value [12]: 0.8863 | CI value [13]: 0.190 | Fa value [13]: 0.8581 | CI value [14]: 0.315 | Fa value [14]: 0.8849 | CI value [15]: 0.895 | Fa value [15]: 0.5060 | CI value [16]: 0.461 | Fa value [16]: 0.7886 | CI value [17]: 0.501 | Fa value [17]: 0.5507 | CI value [18]: 0.537 | Fa value [18]: 0.8719 | CI value [19]: 0.502 | Fa value [19]: 0.5583 | CI value [20]: 0.288 | Fa value [20]: 0.8866 | CI value [21]: 0.257 | Fa value [21]: 0.8783 | CI value [22]: 0.721 | Fa value [22]: 0.6537 | CI value [23]: 0.890 | Fa value [23]: 0.6005 | CI value [24]: 0.881 | Fa value [24]: 0.6426 | CI value [25]: 0.482 | Fa value [25]: 0.8809 | CI value [26]: 0.676 | Fa value [26]: 0.7364 | CI value [27]: 0.491 | Fa value [27]: 0.8557 | CI value [28]: 0.583 | Fa value [28]: 0.6575 | CI value [29]: 0.772 | Fa value [29]: 0.6999 | CI value [30]: 0.858 | Fa value [30]: 0.8410 | CI value [31]: 0.563 | Fa value [31]: 0.6756 | CI value [32]: 0.480 | Fa value [32]: 0.8412 | CI value [33]: 0.894 | Fa value [33]: 0.7741 | CI value [34]: 0.871 | Fa value [34]: 0.7361 | CI value [35]: 0.761 | Fa value [35]: 0.6398 | CI value [36]: 0.831 | Fa value [36]: 0.7172 | CI value [37]: 0.688 | Fa value [37]: 0.8162 | CI value [38]: 0.661 | Fa value [38]: 0.6630 | CI value [39]: 0.717 | Fa value [39]: 0.8230 | CI value [40]: 0.790 | Fa value [40]: 0.9173 | CI value [41]: 0.632 | Fa value [41]: 0.9198 | CI value [42]: 0.848 | Fa value [42]: 0.9125 | CI value [43]: 0.761 | Fa value [43]: 0.8988 | CI value [44]: 0.502 | Fa value [44]: 0.9734 | CI value [45]: 0.694 | Fa value [45]: 0.9675 | CI value [46]: 0.569 | Fa value [46]: 0.9841
